Patent US11510886B2, “Metformin amino acid compounds and methods of using the same” (Laboratorios Silancs S.A. DE C.V., priority 2016, dated 2022)

Assays:
[1] = tested on: insulin receptor; test: Insulin receptor β subunit in plasma membrane of C2C12 myotubes; format: cell-based, Mice; conditions: 10 mM, 3 hours (FIG. 76), listed as SLN10
Procedure: FIG. 76. Metformin lysinate promotes the accumulation of insulin receptor β subunit in plasma membrane. C2C12 cells were differentiated for 5 days in DMEM supplemented with 2% horse serum; then, cultures were treated for 3 hours with SLN1 or SLN10 10 mM, or with vehicle (control) at 37° C. Similar quantities of each extract were analyzed by Western blot with insulin receptor subunit (IRP) specific antibodies.

[2] = tested on: RAW264.7 macrophages; test: GPBP and pro-IL-1β expression in stimulated RAW264.7 macrophages; format: cell-based
Procedure: FIG. 87. […] RAW264.7 macrophages cultured in DMEM, supplemented with 10% FBS and antibiotics, were treated with the indicated concentrations of either SLN1, SLN10 for 2 hours, after which LPS (1 μg/mL) was added to cultures. After incubating for 16 hours, the relative expression quantification (RQ) for GPBP was analyzed by RT-qPCR, using HPRT-1 as a normalizer and non-stimulated cells (cells) as a reference point.
FIG. 88. […] RAW264.7 macrophages were treated as shown in FIG. 87 and analyzed by flow cytometry, using for sample processing the Cytofix/Cytoperm (BD) kit, according to the manufacturer's instructions, as well as specific antibodies against GPBP (N27) and pro-IL-1β, conjugated with FITC and phycoerythrin (PE), correspondingly. The intensity of fluorescence (IF) emission median value is shown in arbitrary units (a.u.) for each of the series. Non-treated cells were used as a reference point and their corresponding isotype controls were carried out. The median is usually used in fluorescence quantitative studies to minimize the influence of extreme values that may distort the real mean value. Isotype controls were carried out to eliminate background, caused by nonspecific fluorescence; nonspecific antibodies from the same isotype of those used to detect GPBP and pro-IL-1β were used. […]

[3] = tested on: RAW264.7 macrophages and L1 adipocytes co-cultures; test: Glucose consumption in macrophage and adipocyte co-cultures; format: cell-based, Mice; conditions: 10 mM, 30 hours (FIG. 80)
[4] = Metformin association with lysine in aqueous solution (1H NMR titration); format: physicochemical; conditions: 1×PBS, pH 7.5, WINEQNMR2
Procedure: Specifically, 500 μL of a 10 mM lysine solution in buffer […] were introduced in an NMR tube, and the pH was adjusted to 7.5; moreover, […] of deuterated methanol was added, and the NMR proton spectrum was recorded (^1H). […] Increasing amounts of the metformin dissolution were added to the amino acid dissolution, and the ^1H NMR spectrum was recorded after each addition until reaching 20 equivalents.
The alpha proton signal of lysine (triplet to 3.76 ppm, FIG. 100) first shifted to lower […] and then to higher values. […] The complexation constant was calculated to be 828±42 (FIG. 101).

[5] = target: T1, GPBP (Homo sapiens, UniProt Q9Y5P4); format: binding
T1 sequence (Q9Y5P4 1-624): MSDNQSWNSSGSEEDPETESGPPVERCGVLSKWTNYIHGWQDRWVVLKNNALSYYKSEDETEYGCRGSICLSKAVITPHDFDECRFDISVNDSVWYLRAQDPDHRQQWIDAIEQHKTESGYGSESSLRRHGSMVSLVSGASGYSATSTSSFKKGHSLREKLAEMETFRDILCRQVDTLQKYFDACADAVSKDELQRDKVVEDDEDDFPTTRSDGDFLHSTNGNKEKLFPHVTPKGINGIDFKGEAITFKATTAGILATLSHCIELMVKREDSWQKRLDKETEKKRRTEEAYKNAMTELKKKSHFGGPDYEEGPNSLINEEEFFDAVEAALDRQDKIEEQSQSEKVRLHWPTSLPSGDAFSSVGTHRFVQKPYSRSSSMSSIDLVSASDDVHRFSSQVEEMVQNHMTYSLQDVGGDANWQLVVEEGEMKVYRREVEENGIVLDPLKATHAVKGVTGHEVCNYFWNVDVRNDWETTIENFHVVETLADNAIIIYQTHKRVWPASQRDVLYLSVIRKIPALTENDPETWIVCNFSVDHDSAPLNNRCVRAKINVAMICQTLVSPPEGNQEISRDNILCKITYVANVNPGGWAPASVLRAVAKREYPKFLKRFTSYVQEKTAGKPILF
Procedure: GPBP·SLN10n (Equation 2) where
The equation above was represented with the F data obtained at 26° C.

metformin lysinate
accumulation of insulin receptor in the plasma membrane [1]: promotes the accumulation of insulin receptor in the plasma membrane | GPBP secretion induced by LPS and IC ([2]; FIG. 90): less ability to reduce GPBP secretion | induced expression of GPBP ([2]; LPS or LPS and IFN-γ, flow cytometry (FIGS. 88, 89)): more efficiently inhibited by SLN10 | glucose consumption of co-cultures [3]: stronger | complexation constant [4]: 828±42 | GPBP fluorescence emission at 370 nm (F370) [5]: steady reduction (extinction) | Ksv (Stern-Volmer constant) [5]: 108800 M⁻¹ | n (number of SLN10 molecules bound to GPBP) [5]: 0.7
